What was measured:
[1] = test system: human blood cancer cells; assay: Analysis of mitochondrial membrane potential and cytochrome c release; type: cell-based; details: 5 and 10 μg/ml phytosphingosine
Procedure: Human lung cancer cells and blood cancer cells were cultured under the same condition as in the apoptosis test and were treated with 10 ml of phytosphingosine (10 μg/ml of phytosphingosine for lung cancer cells, and 5 μg/ml and 10 μg/ml of phytosphingosine for blood cancer cells). Then, the analysis of mitochondrial membrane potential and western blotting was carried out. Mitochondria were stained with 30 nM of a specific DioC6(3) dye (Calbiochem) for 30 minutes and culture media were removed. Then, lung cancer cells were twice washed with PBS and the membrane potential was analyzed by flow cytometry.

[2] = test system: caspases in human lung cancer cells; assay: Western blotting of caspase-3, caspase-8, caspase-9 and PARP; type: cell-based; details: 10 μg/ml phytosphingosine, FIG. 10
Procedure: (§1) Human lung cancer cells and blood cancer cells were cultured under the same condition as in the apoptosis test and were treated with 10 ml of phytosphingosine (10 μg/ml of phytosphingosine for lung cancer cells, and 5 μg/ml and 10 μg/ml of phytosphingosine for blood cancer cells). Then, the analysis of mitochondrial membrane potential and western blotting was carried out. Phytosphingosine-treated human lung cancer cells and blood cancer cells were dissolved in a protease inhibitor-containing lysis buffer (40 mM Tris-Cl (pH 8.0), 120 mM NaCl, 0.1% […]) and centrifuged to give a protein extract. Pure proteins were isolated from the protein extract using SDS-PAGE and transferred to a nitrocellulose membrane. The protein-bound nitrocellulose membrane was blocked with skim milk and incubated with as caspase-3, caspase-8, caspase-9, and poly(ADP-ribose)polymerase (PARP) as primary antibodies at room temperature for one hour. The primary antibodies-bound nitrocellulose membranes were three times washed with PBS-T (phosphate buffered saline, 0.1% Tween-20) and incubated with HRP (Horse Radish Peroxidase)-conjugated secondary antibodies for one hour. The expression of caspase-3, caspase-8, caspase-9, and PARP was detected using ECL reagent (PerkinElmer Life Science, Inc.).

[3] = test system: caspases in human blood cancer cells; assay: as above; type: cell-based; details: 5 and 10 μg/ml phytosphingosine, FIG. 10
Procedure: as §1

[4] = Ames test
Text: (§2) Royal Gist-Brocades N.V. (Netherlands) was asked to perform tests for acute oral toxicity and dermal irritation, and Ames tests of phytosphingosine and derivatives thereof.

[5] = test system: human lung cancer cells; assay: Colony formation test in combination with radiation; type: cell-based; details: FIG. 12
Procedure: Colony formation tests were carried out in human lung cancer cells, breast cancer cells, and uterine cervical cancer cells as follows:
Respective sphingosine, phytosphingosine, C6PS, and C8PS were dissolved ethanol to produce specimens. About 600 cells (for each cancer) were plated in a dish with a diameter of 60 mm and incubated in a CO2 incubator at 37° C. for a day. Then, the cancer cells were treated with the specimens in combination with radiation and were continuously cultured. When suitable colonies were formed, the cancer cells were fixed with a fixing solution (methanol/acetic acid=3:1) and stained with trypan blue. Then, the number of the colonies was counted and the results were evaluated in a comparative manner.

[6] = test system: human uterine cervical cancer cells (NCI-H460 cells); assay: In vivo animal test, tumor volume in transplanted nude mice (phytosphingosine alone); details: FIG. 11
Procedure: Nude mice (body weight: about 20 g) were randomized into 2 groups: a first group is for a control group and a second group is for treatment with phytosphingosine. The femoral region of the nude mice was transplanted with human uterine cervical cancer cells ([…]). Then, tumor volume was allowed to reach a level of […]. A 50 mg/kg solution of phytosphingosine in an olive oil was orally administered to the second group for one week on a daily basis.

[7] = test system: human uterine cervical cancer cells (HeLa); assay: Apoptosis test (Sub G1, propidium iodide, flow cytometry); type: cell-based
Procedure: (§3) Cancer cells as used in the experiment were human lung cancer cells (NCI-H460, Korean Cell Line Bank), human breast cancer cells (MDA-MB-231, American Type Culture Collection (ATCC)), human uterine cervical cancer cells (HeLa, Korean Cell Line Bank), and blood cancer cells (Jurkat, ATCC). These cancer cells were cultured in RPMI 1640 media containing 10% FBS, penicillin, and streptomycin (GIBCO BRL). The apoptosis tests were carried out at human lung cancer cells, breast cancer cells, uterine cervical cancer cells, and blood cancer cells as follows: Phytosphingosine or a derivative thereof was dissolved in DMSO. Samples of the resultant solution of different concentration levels (1, 2, 5, 10, 15, 20 μg/ml) were prepared. According to the following treatment schedule, phytosphingosine treated cancer cells were cultured, washed with PBS (phosphate buffered saline), and fixed with 70% ethanol. The fixed cells were again washed with PBS, suspended in PBS, and 1 mg/ml of RNase was added thereto. Then, DNA was stained with 50 μg/ml of propidium iodide fluorescent dye and the change in the Sub G1 was analyzed by flow cytometry (Becton DICKINSON). The Sub G1, a marker of apoptotic cell death, means DNA distribution lower than that in the G1 phase of cell cycle. (1-1) In order to determine an anticancer effect of phytosphingosine, 5 ml of 10 μg/ml of phytosphingosine was added to respective dishes containing lung cancer cells, breast cancer cells, uterine cervical cancer cells, and blood cancer cells. (1-2) In order to examine a correlation of an anticancer effect with the phytosphingosine concentration and post-treatment culture time, each 5 ml of 2, 5, 10, and 15 μg/ml of phytosphingosine was added to respective human uterine cervical cancer cell-containing dishes and human breast cancer cell-containing dishes. In addition, each 5 ml of 5, 10, 15, and 20 μg/ml of phytosphingosine was added to respective human lung cancer cell-containing dishes, and each 5 ml of 1, 5, 10, and 20 μg/ml of phytosphingosine was added to respective human blood cancer cell-containing dishes.

[8] = test system: human breast cancer cells (MDA-MB-231); assay: as above; type: cell-based
Procedure: as §3

[9] = Oral or transdermal toxicity tests; details: rat, in vivo, other: oral or transdermal, rats
[10] = Acute oral toxicity test; details: rat, in vivo, rats
Procedure: as §2
In the acute oral toxicity test, the LD50 (the […]) value amounted to 2,000 mg/kg or more in rats.

[11] = 10 μg/ml phytosphingosine, test (1-1), FIG. 1

Compound: CCCCCCCCCCCCCC[C@@H](O)[C@@H](O)[C@@H](N)CO [phytosphingosine]
- mitochondrial membrane potential [1]: decreased
- release of cytochrome c from mitochondria [1]: increased
- activities of the caspases [2]: considerably increased
- activities of the caspases [3]: considerably increased
- mutagenicity (Ames test) [4]: do not cause mutation
- reduction of tumor growth, concurrent treatment vs radiation, sphingosine or PS alone ([5]; PS in combination with radiation): ≥ 30%
- sensitizer enhancement ratio (SER) ([5]; in combination with radiation): 1.21
- inhibitory effect on tumor growth compared to control group ([6]; 50 mg/kg/day oral for one week, at the 40th day): potent inhibitory effect on tumor growth
- tumor size change ([6]; 50 mg/kg/day oral in olive oil for one week, versus control group): did not show changes for 20 days
- anticancer effect compared to untreated cancer cells [7, 11]: excellent anticancer effects
- apoptosis ([7]; 15 μg/ml or more, culture of 12 hours or more, FIG. 3): ≥ 50%
- apoptosis ([7]; 15 μg/ml, at 12-18 hours after treatment): 50%
- apoptosis ([8]; 10 μg/ml or more, culture of 12 hours or more, FIG. 4): ≥ 50%
- anticancer effect compared to untreated cancer cells [8, 11]: excellent anticancer effects
- apoptosis ([8]; 10 μg/ml, at 12 hours after treatment): 50%
- LD50 [9]: ≥ 2000 mg/kg
- LD50 [10]: ≥ 2000 mg/kg
